According to patent publication US10759766B2, “Certain chemical entities, compositions, and methods” (NeuPharma, Inc., priority 2011, dated 2020):

How the values were obtained:
[1] = target: BRAF (Homo sapiens (Human), UniProt P15056); assay: Z′-LYTE kinase inhibition assay (Invitrogen), BRAF; type: biochemical; settings: 1 μM compound, Z′-LYTE method; read-out: % inhibition at 1 μM against BRAF
[2] = target: BRAF V600E (Homo sapiens (Human), UniProt P15056, V600E); assay: Z′-LYTE kinase inhibition assay (Invitrogen), BRAF V600E; type: biochemical; settings: Z′-LYTE method; for inhibition at 1 µM: 1 μM compound, read-out: % inhibition at 1 μM against BRAF V600E; for IC50: read-out: IC50 against BRAF V600E
Sequence of BRAF V600E (P15056 whole entry V600E): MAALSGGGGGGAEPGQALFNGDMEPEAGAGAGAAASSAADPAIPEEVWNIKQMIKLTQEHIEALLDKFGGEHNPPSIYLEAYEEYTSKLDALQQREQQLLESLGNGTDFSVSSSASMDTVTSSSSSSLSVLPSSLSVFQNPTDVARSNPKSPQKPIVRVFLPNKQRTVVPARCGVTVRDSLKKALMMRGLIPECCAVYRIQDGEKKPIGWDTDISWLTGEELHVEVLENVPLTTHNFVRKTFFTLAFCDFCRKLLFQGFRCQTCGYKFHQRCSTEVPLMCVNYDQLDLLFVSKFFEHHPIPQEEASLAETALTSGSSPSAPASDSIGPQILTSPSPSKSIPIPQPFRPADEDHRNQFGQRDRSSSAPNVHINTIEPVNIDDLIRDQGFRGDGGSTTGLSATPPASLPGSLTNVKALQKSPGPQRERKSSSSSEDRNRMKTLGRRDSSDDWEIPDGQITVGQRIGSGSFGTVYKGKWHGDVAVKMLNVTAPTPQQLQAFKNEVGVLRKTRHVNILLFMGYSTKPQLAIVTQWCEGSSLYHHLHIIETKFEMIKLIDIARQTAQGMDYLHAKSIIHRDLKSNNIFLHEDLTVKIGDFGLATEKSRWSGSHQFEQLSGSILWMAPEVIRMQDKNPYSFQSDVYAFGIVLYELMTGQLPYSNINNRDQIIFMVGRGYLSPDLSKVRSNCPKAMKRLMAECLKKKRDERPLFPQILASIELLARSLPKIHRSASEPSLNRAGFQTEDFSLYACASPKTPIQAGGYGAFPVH
Method in brief: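 FRET-based Z′-LYTE peptide phosphorylation format in 50 mM HEPES pH 7.5, 0.01% BRIJ-35, 10 mM MgCl2, 1 mM EGTA with ATP. Kinase reaction 60 min at room temperature, then protease development step 60 min at room temperature before fluorescence read. IC50 from compound concentration versus percent inhibition.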

[3] = target: KDR (VEGFR2) (Homo sapiens (Human), UniProt P35968); assay: Z′-LYTE kinase inhibition assay (Invitrogen), KDR; type: biochemical; settings: Z′-LYTE method; for inhibition at 1 µM: 1 μM compound, read-out: % inhibition at 1 μM against KDR; for IC50: read-out: IC50 against KDR
Sequence of KDR (VEGFR2) (P35968 20-1356): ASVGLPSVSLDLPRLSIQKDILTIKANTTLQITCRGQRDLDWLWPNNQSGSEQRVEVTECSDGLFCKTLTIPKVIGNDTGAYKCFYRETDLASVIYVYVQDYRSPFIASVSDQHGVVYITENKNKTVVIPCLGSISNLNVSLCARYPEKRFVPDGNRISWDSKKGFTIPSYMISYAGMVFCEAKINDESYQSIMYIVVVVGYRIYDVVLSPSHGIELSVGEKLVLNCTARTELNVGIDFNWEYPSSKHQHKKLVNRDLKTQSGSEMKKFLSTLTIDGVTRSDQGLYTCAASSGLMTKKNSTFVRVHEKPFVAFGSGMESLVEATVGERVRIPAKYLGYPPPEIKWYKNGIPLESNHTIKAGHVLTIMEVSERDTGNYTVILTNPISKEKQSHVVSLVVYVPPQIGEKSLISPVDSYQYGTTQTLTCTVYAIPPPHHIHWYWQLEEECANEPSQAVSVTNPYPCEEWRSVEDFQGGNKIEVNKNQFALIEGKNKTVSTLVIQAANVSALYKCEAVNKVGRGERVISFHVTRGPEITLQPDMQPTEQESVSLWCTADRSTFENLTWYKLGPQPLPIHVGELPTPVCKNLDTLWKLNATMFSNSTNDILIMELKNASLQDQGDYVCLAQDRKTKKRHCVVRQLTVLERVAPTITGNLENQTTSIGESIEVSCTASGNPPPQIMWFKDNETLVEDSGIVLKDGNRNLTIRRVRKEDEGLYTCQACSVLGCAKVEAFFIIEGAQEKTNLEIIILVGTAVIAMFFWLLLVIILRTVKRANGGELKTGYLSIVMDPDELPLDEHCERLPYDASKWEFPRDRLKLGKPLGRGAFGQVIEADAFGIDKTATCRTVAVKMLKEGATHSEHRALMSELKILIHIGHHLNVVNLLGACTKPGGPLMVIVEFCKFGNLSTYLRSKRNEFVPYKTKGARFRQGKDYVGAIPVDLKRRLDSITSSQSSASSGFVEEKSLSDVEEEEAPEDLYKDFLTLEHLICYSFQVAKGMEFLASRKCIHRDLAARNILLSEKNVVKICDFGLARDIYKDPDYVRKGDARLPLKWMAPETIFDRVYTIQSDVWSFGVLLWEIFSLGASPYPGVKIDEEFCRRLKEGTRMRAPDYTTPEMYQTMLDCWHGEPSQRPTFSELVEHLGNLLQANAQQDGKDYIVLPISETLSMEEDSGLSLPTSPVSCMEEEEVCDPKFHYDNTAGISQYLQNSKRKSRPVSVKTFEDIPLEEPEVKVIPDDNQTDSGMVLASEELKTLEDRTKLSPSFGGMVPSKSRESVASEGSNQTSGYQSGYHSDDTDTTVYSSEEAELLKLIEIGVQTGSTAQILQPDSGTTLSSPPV
Method in brief: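 Z′-LYTE FRET assay: 10 μL reactions with 0.5–11.7 ng KDR and 2 μM Tyr 01 peptide in 50 mM HEPES pH 7.5, 10 mM MgCl2, 1 mM EGTA, 0.01% BRIJ-35, 1 h at room temperature. Development Reagent B (1:256) added for 60 min, fluorescence read; IC50 from concentration–inhibition curves.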

[4] = system: A375 cells; assay: Inhibition of cancer cell growth, MTT assay, A375; type: cell-based; settings: Homo sapiens, A-375, 72 h exposure
Method in brief: (§1)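 Cells grown in RPMI 1640 with 10% FBS were seeded at about 4000 cells/well, left 24 h, then exposed to compound for 72 h (1% DMSO final). MTT absorbance at 570 nm was compared with viable cells at time of addition to give growth inhibition; IC50 from concentration–inhibition plots, triplicates.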

[5] = system: A549 cells; assay: Inhibition of cancer cell growth, MTT assay, A549; type: cell-based; settings: Homo sapiens, A549, 72 h exposure
Method in brief: as §1

Sequence of BRAF (P15056 whole entry): as the sequence (P15056 whole entry V600E) above, with E600V counted along it

Compound: O=C(Nc1cccc(C(=O)c2ccc3ncc(-c4cn[nH]c4)nc3c2)c1)Nc1ccc(Cl)c(C(F)(F)F)c1 [Compound C029, 1-(3-(3-(1H-pyrazol-4-yl)quinoxaline-6-carbonyl)phenyl)-3-(4-chloro-3-(trifluoromethyl)phenyl)urea]
- inhibition at 1 µM [1]: 70 to 89%
- inhibition at 1 µM [2]: > 89%
- IC50 [2]: < 100 nM
- inhibition at 1 µM [3]: > 89%
- IC50 [3]: < 100 nM
- IC50 [4]: 1000 to 5000 nM
- IC50 [5]: 2000 to 5000 nM

Compound: O=C(Nc1cccc(C(=O)c2ccc3ncc(N4CCCC4)nc3c2)c1)c1cccc(F)c1 [Compound C121, 3-fluoro-N-(3-(3-(pyrrolidin-1-yl)quinoxaline-6-carbonyl)phenyl)benzamide]
- inhibition at 1 µM [1]: < 70%
- inhibition at 1 µM [2]: 70 to 89%
- IC50 [2]: > 100 nM
- inhibition at 1 µM [3]: 70 to 89%
- IC50 [3]: < 100 nM
- IC50 [4]: < 1000 nM
- IC50 [5]: < 2000 nM

Compound: O=C(Nc1ccc(F)c(C(=O)c2ccc3nccnc3c2)c1Cl)c1ccc(Cl)c(C(F)(F)F)c1 [Compound C112, 4-chloro-N-(2-chloro-4-fluoro-3-(quinoxaline-6-carbonyl)phenyl)-3-(trifluoromethyl)benzamide]
- inhibition at 1 µM [1]: < 70%
- inhibition at 1 µM [2]: < 70%
- inhibition at 1 µM [3]: < 70%
- IC50 [4]: > 5000 nM
- IC50 [5]: > 5000 nM

Compound: O=C(Nc1cccc(C(=O)c2ccc3ncc(-c4cccnc4)nc3c2)c1)c1ccc(C(F)(F)F)c(Cl)c1 [Compound C124, 3-chloro-N-(3-(3-(pyridin-3-yl)quinoxaline-6-carbonyl)phenyl)-4-(trifluoromethyl)benzamide]
- inhibition at 1 µM [1]: < 70%
- inhibition at 1 µM [2]: > 89%
- IC50 [2]: < 100 nM
- inhibition at 1 µM [3]: > 89%
- IC50 [3]: < 100 nM
- IC50 [4]: > 5000 nM
- IC50 [5]: > 5000 nM

Compound: O=C(Nc1cccc(C(F)(F)F)c1)Nc1ccc(F)c(C(=O)c2ccc3nccnc3c2)c1 [Compound C014, 1-(4-fluoro-3-(quinoxaline-6-carbonyl)phenyl)-3-(3-(trifluoromethyl)phenyl)urea]
- inhibition at 1 µM [1]: < 70%
- inhibition at 1 µM [2]: > 89%
- IC50 [2]: < 100 nM
- inhibition at 1 µM [3]: 70 to 89%
- IC50 [3]: < 100 nM
- IC50 [4]: < 1000 nM
- IC50 [5]: < 2000 nM

Compound: O=C(Nc1ccc(Cl)c(C(F)(F)F)c1)Nc1ccc(F)c(C(=O)c2ccc3nccnc3c2)c1Cl [Compound C008, 1-(4-chloro-3-(trifluoromethyl)phenyl)-3-(2-chloro-4-fluoro-3-(quinoxaline-6-carbonyl)phenyl)urea]
- inhibition at 1 µM [1]: < 70%
- inhibition at 1 µM [2]: < 70%
- inhibition at 1 µM [3]: < 70%
- IC50 [4]: > 5000 nM
- IC50 [5]: 2000 to 5000 nM

Compound: O=C(Nc1cccc(C(F)(F)F)c1)Nc1cc(F)c(F)c(C(=O)c2ccc3nccnc3c2)c1F [Compound C006, 1-(2,4,5-trifluoro-3-(quinoxaline-6-carbonyl)phenyl)-3-(3-(trifluoromethyl)phenyl)urea]
- inhibition at 1 µM [1]: < 70%
- inhibition at 1 µM [2]: 70 to 89%
- inhibition at 1 µM [3]: < 70%
- IC50 [4]: > 5000 nM
- IC50 [5]: > 5000 nM

Compound: O=C(Nc1cncc(Cl)c1)Nc1ccc(F)c(C(=O)c2ccc3ncc(N4CCOCC4)nc3c2)c1 [Compound C081, 1-(5-chloropyridin-3-yl)-3-(4-fluoro-3-(3-morpholinoquinoxaline-6-carbonyl)phenyl)urea]
- inhibition at 1 µM [1]: > 89%
- inhibition at 1 µM [2]: > 89%
- inhibition at 1 µM [3]: 70 to 89%
- IC50 [4]: < 1000 nM
- IC50 [5]: > 5000 nM

Compound: COc1cnc2ccc(C(=O)c3cc(NC(=O)Nc4ccc(F)c(F)c4)ccc3F)cc2n1 [Compound C082, 1-(3,4-difluorophenyl)-3-(4-fluoro-3-(3-methoxyquinoxaline-6-carbonyl)phenyl)urea]
- inhibition at 1 µM [1]: < 70%
- inhibition at 1 µM [2]: > 89%
- inhibition at 1 µM [3]: 70 to 89%
- IC50 [4]: 1000 to 5000 nM
- IC50 [5]: 2000 to 5000 nM

Compound: O=C(Nc1cccc(C(=O)c2ccc3ncc(N4CCOCC4)nc3c2)c1)Nc1cccc(C(F)(F)F)c1 [Compound C017, 1-(3-(3-morpholinoquinoxaline-6-carbonyl)phenyl)-3-(3-(trifluoromethyl)phenyl)urea]
- inhibition at 1 µM [1]: 70 to 89%
- inhibition at 1 µM [2]: > 89%
- IC50 [2]: < 100 nM
- inhibition at 1 µM [3]: > 89%
- IC50 [3]: < 100 nM
- IC50 [4]: < 1000 nM
- IC50 [5]: < 2000 nM

Compound: O=C(c1cccc(NC(=O)c2cc(C(F)(F)F)ccc2Cl)c1)c1ccc2nccnc2c1 [Compound C106, 2-chloro-N-(3-(quinoxaline-6-carbonyl)phenyl)-5-(trifluoromethyl)benzamide]
- inhibition at 1 µM [1]: < 70%
- inhibition at 1 µM [2]: 70 to 89%
- inhibition at 1 µM [3]: < 70%
- IC50 [4]: < 1000 nM
- IC50 [5]: > 5000 nM
